# Literature values as cited in publication PMC8279981, “A first-in-human, phase 1 study of the NEDD8 activating enzyme E1 inhibitor TAS4464 in patients with advanced solid tumors” (Investigational New Drugs, 2021).
# Where two headings read alike, the source gives them in different places.
# Columns and labels:
# [1] = system: rats; set-up: method as in PMID 27551465, PMID 22927439; conditions: cited from earlier work
# [2] = system: cells derived from macrophages; set-up: method as in PMID 22927439; conditions: cited from earlier work
# [3] = system: bleomycin-induced idiopathic pulmonary fibrosis models; set-up: method as in PMID 28469786; conditions: cited from earlier work
# [4] = system: patients; set-up: method as in PMID 26561559, PMID 25733005, PMID 27056178, PMID 26423795; conditions: clinical trials; cited from earlier work
structure (smiles),measurement,setting,value
NS(=O)(=O)OC[C@@H]1C[C@@H](n2ccc3c(N[C@H]4CCc5ccccc54)ncnc32)C[C@@H]1O [MLN4924],"AST, ALT, sorbitol dehydrogenase",[1]; combination of TNF-α and MLN4924,Increases in laboratory values
same,"AST, ALT, sorbitol dehydrogenase","[1]; rats, MLN4924 administration alone","no increases in AST, ALT, or sorbitol dehydrogenase"
same,production of TNF-α,[2],suppress the production of TNF-α
same,efficacy in pulmonary fibrosis models,[3],efficacy in bleomycin-induced idiopathic pulmonary fibrosis models has been shown
same,abnormal liver function tests (ALT and AST increased),[4],one of the major AEs
